For four compounds, IC20 results are on record in patent EP3283473B1, “GHRELIN O-ACYL TRANSFERASE INHIBITORS” (Eli Lilly and Company, priority 2015, dated 2016).

For orientation: IC20 means the point of the concentration-response curve where the effect stands at 20%. Higher therefore signals a need for much substance.

The target in the test is T1, human GOAT (Homo sapiens, UniProt Q96T53).
T1 construct: His; made in house; host or cells: Sf9 insect cells (baculovirus, pAN51 vector); microsomal membrane preparation
T1 sequence (Q96T53 1-435): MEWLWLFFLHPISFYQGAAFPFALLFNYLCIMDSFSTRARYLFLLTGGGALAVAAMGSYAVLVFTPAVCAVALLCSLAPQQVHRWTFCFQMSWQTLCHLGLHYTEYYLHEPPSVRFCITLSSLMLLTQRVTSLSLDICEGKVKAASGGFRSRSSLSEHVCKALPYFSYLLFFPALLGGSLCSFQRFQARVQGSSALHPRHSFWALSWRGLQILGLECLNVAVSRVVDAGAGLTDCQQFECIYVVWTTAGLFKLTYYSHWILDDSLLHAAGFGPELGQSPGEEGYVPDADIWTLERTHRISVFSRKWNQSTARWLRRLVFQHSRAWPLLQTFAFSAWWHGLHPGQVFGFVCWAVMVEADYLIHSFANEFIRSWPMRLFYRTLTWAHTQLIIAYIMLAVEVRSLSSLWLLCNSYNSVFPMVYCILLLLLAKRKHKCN
The test can be described thus: In vitro cell free human GOAT enzymatic assay. The following applies: GOAT-His/sf9 membrane preparation. The test is classed as biochemical. The method, then:
Human GOAT gene (Accession number: NM_001100916) is subcloned to pAN51 baculoviral expression vector. Baculovirus stock is prepared following the Bac-to-Bac Protocol provided by the vendor, Invitrogen, California, USA. Five mililiters of human GOAT baculoviral stock are added to 500 mL Sf9 cells in HyQ SFX-Insect™ media (HyClone catalog number SH30278.02) at the density of 1 × 10^6 cells per milliliter in a 2 L Erlenmeyer flask. The flask with human GOAT gene infected Sf9 cells is put on a plate shaker at 120 rpm at 28 °C for 48 hours. After 48 hours incubation, cells are centrifuged at 1,000xg for 10 min at 4 °C. The cell pellets are collected and stored at -80 °C in a freezer until ready for further processing.
One gram cell pellets are suspended in 9 mL chilled homogenization buffer (50 mM Tris-HCl, 250 mM sucrose, adjusted to pH 7.5 and sterile filtered through 0.2 µm Millipore filter). The cell suspension is transferred to a Dounce glass homogenizer. Cell pellets are homogenized with 40 strokes on ice. The homogenate is centrifuged at 3,000 rpm in a Beckman swing bucket rotor at 4 °C for 10 min to remove unbroken cells. The supernatant is collected and centrifuged at 40,000 xg for 1 hour at 4 °C. The resulting membrane pellet is suspended in the homogenization buffer using a Dounce glass homogenizer and stored at -20 °C in the freezer for the assay. For long term storage of the human GOAT enzyme membrane preparation, the suspended membrane is stored in a -80 °C freezer.
Prepare test compounds in DMSO to make up a 0.2 mM stock solution. Serially dilute the stock solution in DMSO to obtain a ten-point dilution curve with final compound concentrations ranging from 10 µM to 0.5 nM in a 96-well round-bottom plate. Prepare enzyme and substrate solutions in assay buffer (0.02% TWEEN™-20 in 50 mM Tris, pH 7.5/250 mM sucrose/1 mg/mL BSA/10 mM EDTA). Add diluted compound (1 µL) to each well of row A to N of a corresponding low protein binding 384 well plate. Add human GOAT substrate mix (10 µL), consisting of human desacyl-ghrelin-biotin (CPC Scientific Inc., 6.0 µM final), octanoyl-coenzyme A (CoA) (Sigma, 60 µM final) and an AG specific antibody (WO 2006/091381)(1.0 µg/mL final), to the compounds. Add GOAT-His/sf9 enzyme preparation, that has been prepared in assay buffer (9 µL), to each well of the plate containing substrate and test compounds resulting in a final concentration of 0.01 µg/mL to initiate the reaction. Incubate the mixture for 1 hour at RT on a gently rotating oscillator. Add 4M guanidine hydrochloride (20 µL) to all wells, mix, and incubate for 3 hours to stop the reaction.
Prepare ELISA plates (STREPTAVIDIN SPECTRAPLATE™ 384, Perkin Elmer) by blocking with 2% Heat-Inactivated FBS in PBS (40 µL) (Invitrogen) blocking buffer for 3 hours. Aspirate the blocking buffer from ELISA plate and add blocking buffer (23 µL) to columns 1-24, rows A-N. Reserve rows O and P for the acylghrelin standard curve. Add the reaction mix (2 µL) to the ELISA plates. Prepare a 10 point standard curve (biotin-labeled octanoyl-ghrelin) by serial 2X dilution in blocking buffer containing 0.2M Guanidine hydrochloride starting at 2.5 pM. Incubate the reaction mixture or biotin-labeled AG standard in the ELISA plate overnight at 4 °C. The following day, wash the plate 3× with wash buffer (0.1% TWEEN™-20/PBS, 100 µL per well in each wash cycle). […] Read plates at 450 nm using an ENVISION® Multilabel plate reader. […]
In turn, `Cc1nc(C(F)(F)F)nc(N)c1CCC1CCN(C(=O)[C@H](C)NC(=O)c2nccnc2Cl)CC1` [Example 15, N-[(1S)-2-[4-[2-[4-Amino-6-methyl-2-(trifluoromethyl)pyrimidin-5-yl]ethyl]-1-piperidyl]-1-methyl-2-oxo-ethyl]-3-chloro-pyrazine-2-carboxamide] showed an IC20 of 55.7 nM. With `COc1ccccc1C(=O)N[C@@H](C)C(=O)N1CCC(CCc2c(C)nc(C(F)(F)F)nc2N)CC1` [Example 17, N-[(1S)-2-[4-[2-[4-Amino-6-methyl-2-(trifluoromethyl)pyrimidin-5-yl]ethyl]-1-piperidyl]-1-methyl-2-oxo-ethyl]-2-methoxy-benzamide] the figure was 420 nM; with `Cc1nc(C(F)(F)F)nc(N)c1CCC1CCN(C(=O)[C@H](C)NC(=O)CO)CC1` [Example 18, N-[(1S)-2-[4-[2-[4-Amino-6-methyl-2-(trifluoromethyl)pyrimidin-5-yl]ethyl]-1-piperidyl]-1-methyl-2-oxo-ethyl]-2-hydroxy-acetamide], 276 nM; with `COC(=O)N[C@@H](C)C(=O)N1CCC(CCc2c(C)nc(C(F)(F)F)nc2N)CC1` [Example 20, Methyl N-[(1S)-2-[4-[2-[4-amino-6-methyl-2-(trifluoromethyl)pyrimidin-5-yl]ethyl]-1-pipaidyl]-1-methyl-2-oxo-ethyl]carbamate], 615 nM.
